Measured values taken from ChEMBL document CHEMBL1201862, “PubChem BioAssay data set” (2004).
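Cells were grown in 96-well plates and exposed to each compound for 48 hours at five concentrations; endpoints were interpolated linearly between bracketing concentrations, or set to the highest concentration if not reached. GI50 marks 50% less growth.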 The source made the active and inactive calls. No stated cut-off is given here; in the data, active = GI50 up to about 1.1 µM and inactive = higher.

Experiments:
Assay in all cases: NCI-60 cell line screen, 48 h
[1] = tested on: IGROV-1
[2] = tested on: HT-29
[3] = tested on: SR
[4] = tested on: A549
[5] = tested on: TK-10
[6] = tested on: SNB-19
[7] = tested on: KM-20L2
[8] = tested on: HCT-15
[9] = tested on: XF498
[10] = tested on: SK-OV-3
[11] = tested on: SK-MEL-5
[12] = tested on: SK-MEL-28
[13] = tested on: HCT-116
[14] = tested on: U-251
[15] = tested on: SF-268
[16] = tested on: A498
[17] = tested on: NCI-H226
[18] = tested on: MDA-MB-231
[19] = tested on: BT-549
[20] = tested on: T47D

| SMILES | GI50 [1] | GI50 [2] | GI50 [3] | GI50 [4] | GI50 [5] | GI50 [6] | GI50 [7] | GI50 [8] [µM] | GI50 [9] | GI50 [10] | GI50 [11] | GI50 [12] | GI50 [13] | GI50 [14] | GI50 [15] | GI50 [16] | GI50 [17] | GI50 [18] | GI50 [19] | GI50 [20] |
| --- | --- | --- | --- | --- | --- | --- | --- | --- | --- | --- | --- | --- | --- | --- | --- | --- | --- | --- | --- | --- |
| CCCCSC1CCSc2c1ccc1ccccc21 (stereo unspecified) | > 100 µM (inactive) | 71.6 µM (inactive) | 72.3 µM (inactive) | 77.8 µM (inactive) | > 100 µM (inactive) | > 100 µM (inactive) | 53.8 µM (inactive) | 6.32 | 0.119 µM (active) | > 100 µM (inactive) | > 100 µM (inactive) | > 100 µM (inactive) | 53 µM (inactive) | > 100 µM (inactive) | – | – | – | – | – | – |
| c1ccc2c(C3NCCc4nc[nH]c43)cccc2c1 (stereo unspecified) | > 100 µM (inactive) | > 100 µM (inactive) | > 100 µM (inactive) | > 100 µM (inactive) | > 100 µM (inactive) | – | > 100 µM (inactive) | > 100 | – | > 100 µM (inactive) | > 100 µM (inactive) | > 100 µM (inactive) | > 100 µM (inactive) | > 100 µM (inactive) | > 100 µM (inactive) | > 100 µM (inactive) | > 100 µM (inactive) | – | – | – |
| CCOC(=O)C1S/C(=N\c2cccc(Cl)c2C)N=C1C (stereo unspecified) | 31.3 µM (inactive) | 17 µM (inactive) | 24.7 µM (inactive) | 21.9 µM (inactive) | 35.6 µM (inactive) | 31.4 µM (inactive) | 17.3 µM (inactive) | > 10 | 19.7 µM (inactive) | – | – | 40 µM (inactive) | 22.8 µM (inactive) | 15.1 µM (inactive) | 30.5 µM (inactive) | 34.2 µM (inactive) | 32.8 µM (inactive) | – | – | – |
| FC(F)(F)c1nc(-c2ccccc2)oc1Sc1nnc(Sc2oc(-c3ccccc3)nc2C(F)(F)F)s1 | 24.2 µM (inactive) | > 100 µM (inactive) | 18.5 µM (inactive) | > 100 µM (inactive) | > 55.8 µM (inactive) | > 63.5 µM (inactive) | > 100 µM (inactive) | 25.3 | 9.06 µM (inactive) | > 100 µM (inactive) | 14.4 µM (inactive) | > 55.3 µM (inactive) | > 65.3 µM (inactive) | > 42.5 µM (inactive) | 58.9 µM (inactive) | 98.6 µM (inactive) | – | – | – | – |
| NNC(=O)CNC(=O)c1ccc(Cl)cc1Cl | > 100 µM (inactive) | 80.4 µM (inactive) | – | > 100 µM (inactive) | > 100 µM (inactive) | > 100 µM (inactive) | > 100 µM (inactive) | 32.7 | 91.6 µM (inactive) | > 100 µM (inactive) | > 100 µM (inactive) | > 100 µM (inactive) | 39.4 µM (inactive) | 39.6 µM (inactive) | > 100 µM (inactive) | > 100 µM (inactive) | > 100 µM (inactive) | – | – | – |
| CC(C)CCC[C@@H](C)C1CCC2[C@@H]3CC=C4C[C@@H](OC(=O)CCC(=O)NCC[N+](C)(C)CCCS(=O)(=O)[O-])CC[C@]4(C)C3CC[C@@]21C (stereo partly specified) | – | 26.7 µM (inactive) | – | 17.6 µM (inactive) | – | 24.3 µM (inactive) | 81.3 µM (inactive) | 15.4 | – | > 100 µM (inactive) | > 10 µM (inactive) | 17.8 µM (inactive) | 23.1 µM (inactive) | 18.3 µM (inactive) | 19.3 µM (inactive) | – | 27.4 µM (inactive) | – | – | – |
| O=C(OC1CC(n2cc(F)c(=O)[nH]c2=O)OC1CSC(=O)c1ccccc1)c1ccccc1 (stereo unspecified) | 56.2 µM (inactive) | 17.8 µM (inactive) | – | 29.2 µM (inactive) | > 100 µM (inactive) | 59.7 µM (inactive) | 18.7 µM (inactive) | 34.2 | – | > 100 µM (inactive) | – | 48 µM (inactive) | 34.8 µM (inactive) | 17.6 µM (inactive) | 25.4 µM (inactive) | 41.6 µM (inactive) | 31.3 µM (inactive) | – | – | – |
| COC(=O)C1=C(C(=O)OC)C2(C)Nc3ccccc3C2=C(c2ccccc2)C1 (stereo unspecified) | 22.1 µM (inactive) | 27.7 µM (inactive) | – | 20.4 µM (inactive) | 26.6 µM (inactive) | 24 µM (inactive) | 28.1 µM (inactive) | 20.8 | 12.7 µM (inactive) | – | 15.5 µM (inactive) | 19.8 µM (inactive) | 19 µM (inactive) | 19.8 µM (inactive) | 19.1 µM (inactive) | – | – | – | – | – |
| CC(O)CCC(=O)c1ccoc1 (stereo unspecified) | 7290 µM (inactive) | 8450 µM (inactive) | > 9290 µM (inactive) | 3940 µM (inactive) | 6980 µM (inactive) | 7000 µM (inactive) | > 9160 µM (inactive) | 7660 | – | 6970 µM (inactive) | 4560 µM (inactive) | 6930 µM (inactive) | 5740 µM (inactive) | 6780 µM (inactive) | 7000 µM (inactive) | 3820 µM (inactive) | 5610 µM (inactive) | > 7830 µM (inactive) | 2920 µM (inactive) | 5010 µM (inactive) |
| COC12CCC(C(C(=O)c3ccccc3)=C1C(=O)c1ccccc1)C(O)C2 (stereo unspecified) | > 100 µM (inactive) | > 100 µM (inactive) | > 100 µM (inactive) | > 100 µM (inactive) | > 100 µM (inactive) | > 100 µM (inactive) | – | > 100 | > 100 µM (inactive) | > 100 µM (inactive) | > 100 µM (inactive) | > 100 µM (inactive) | > 100 µM (inactive) | – | > 100 µM (inactive) | 67.3 µM (inactive) | > 100 µM (inactive) | – | – | – |
| CCCCN(CCCC)C(=O)C(=O)CC(=O)c1ccc(Br)cc1 | > 100 µM (inactive) | > 100 µM (inactive) | – | > 100 µM (inactive) | > 100 µM (inactive) | > 100 µM (inactive) | > 100 µM (inactive) | > 100 | > 100 µM (inactive) | > 100 µM (inactive) | > 100 µM (inactive) | – | > 100 µM (inactive) | > 100 µM (inactive) | > 100 µM (inactive) | > 100 µM (inactive) | > 100 µM (inactive) | – | – | – |
| O=c1cc(-c2ccccc2)oc2cc(OCC(O)COc3ccc4c(=O)cc(-c5ccccc5)oc4c3)ccc12 | > 100 µM (inactive) | > 100 µM (inactive) | – | > 100 µM (inactive) | 42.4 µM (inactive) | 20.2 µM (inactive) | > 100 µM (inactive) | 89.1 | 23.4 µM (inactive) | 16.8 µM (inactive) | > 100 µM (inactive) | > 100 µM (inactive) | 42.5 µM (inactive) | 20.8 µM (inactive) | 14.6 µM (inactive) | > 100 µM (inactive) | – | – | – | – |
| CCC1=C(C)/C(=C/c2[nH]c(C(Br)Br)c(CC)c2C)N=C1C(Br)Br | 23.9 µM (inactive) | 28.5 µM (inactive) | 10.8 µM (inactive) | 25.2 µM (inactive) | 41.2 µM (inactive) | 33.3 µM (inactive) | 41 µM (inactive) | 28.2 | – | 25.4 µM (inactive) | 16.6 µM (inactive) | 45.4 µM (inactive) | 23.8 µM (inactive) | 22.5 µM (inactive) | 73.3 µM (inactive) | – | 20.1 µM (inactive) | – | – | – |
| COC1=CC(=O)C2C(C1=O)[C@@H]1c3ccccc3C[C@H]21 (stereo partly specified) | > 100 µM (inactive) | > 100 µM (inactive) | > 100 µM (inactive) | > 100 µM (inactive) | > 100 µM (inactive) | > 100 µM (inactive) | – | > 100 | > 100 µM (inactive) | > 100 µM (inactive) | > 100 µM (inactive) | > 100 µM (inactive) | – | > 100 µM (inactive) | > 100 µM (inactive) | > 100 µM (inactive) | – | – | – | – |
| C[N+](C)(C)CCC(=O)CC[N+](C)(C)C | 87.3 µM (inactive) | 13.5 µM (inactive) | – | > 100 µM (inactive) | 17 µM (inactive) | > 100 µM (inactive) | 25.5 µM (inactive) | 19.2 | 21.2 µM (inactive) | > 100 µM (inactive) | 35.3 µM (inactive) | 21.6 µM (inactive) | 18.4 µM (inactive) | > 100 µM (inactive) | 22.1 µM (inactive) | 70.5 µM (inactive) | – | – | – | – |
| NC(=O)C(N)=O | – | – | > 100 µM (inactive) | > 100 µM (inactive) | > 100 µM (inactive) | > 100 µM (inactive) | > 100 µM (inactive) | > 100 | > 100 µM (inactive) | > 100 µM (inactive) | > 100 µM (inactive) | > 100 µM (inactive) | > 100 µM (inactive) | > 100 µM (inactive) | > 100 µM (inactive) | > 100 µM (inactive) | – | – | – | – |
| C=CCCCCn1c2ccccc2c2c(C)c3c[n+](C)ccc3c(C)c21 | 0.252 µM (active) | 0.271 µM (active) | 0.284 µM (active) | 0.3 µM (active) | 1.86 µM (inactive) | 0.412 µM (active) | 0.352 µM (active) | – | – | 1.2 µM (inactive) | 0.329 µM (active) | 0.426 µM (active) | 0.244 µM (active) | 0.197 µM (active) | 0.366 µM (active) | 1.44 µM (inactive) | 0.212 µM (active) | – | – | – |
| Nc1ncnc(NC2C=C(CO)C(O)C2O)c1[N+](=O)[O-] (stereo unspecified) | > 100 µM (inactive) | > 100 µM (inactive) | > 100 µM (inactive) | > 100 µM (inactive) | > 100 µM (inactive) | > 100 µM (inactive) | > 100 µM (inactive) | 42.9 | – | > 100 µM (inactive) | > 100 µM (inactive) | > 100 µM (inactive) | 32.9 µM (inactive) | > 100 µM (inactive) | > 100 µM (inactive) | > 100 µM (inactive) | > 100 µM (inactive) | – | – | – |
| Nc1c(-c2ccc(Cl)c(Cl)c2)c2ccc([N+](=O)[O-])cc2c(=O)n1-c1nc2ccccc2s1 | 0.796 µM (active) | 0.824 µM (active) | 0.417 µM (active) | 0.407 µM (active) | 0.594 µM (active) | 0.418 µM (active) | – | 0.46 | – | 0.689 µM (active) | 0.328 µM (active) | 18.2 µM (inactive) | 0.202 µM (active) | 0.425 µM (active) | 0.531 µM (active) | 0.566 µM (active) | 0.586 µM (active) | 0.614 µM (active) | 0.762 µM (active) | 0.386 µM (active) |
